These results are taken from patent publication US20040197338A1, “Respiratory syncytial virus” (priority 2001, published 2004).

This data set in a line: Peptide solubility. In kind it is physicochemical. The settings on record: for solubility on resuspension: resuspended at 1 mg/ml, other peptides in water.

With `CC[C@H](C)[C@H](NC(=O)[C@H](CCC(N)=O)NC(=O)[C@@H](NC(=O)[C@H](CCC(=O)O)NC(=O)[C@@H](NC(=O)[C@@H](NC(=O)[C@H](CC(C)C)NC(=O)[C@H](CO)NC(=O)[C@H](C)NC(=O)[C@H](CC(C)C)NC(=O)[C@@H](NC(=O)[C@H](CC(C)C)NC(=O)[C@@H](NC(=O)[C@H](CCC(=O)O)NC(=O)[C@H](Cc1ccccc1)NC(=O)[C@H](CCCCN)NC(=O)[C@H](CCSC)NC(=O)[C@H](CCC(=O)O)NC(=O)[C@H](CCCCN)NC(=O)CN)C(C)C)[C@@H](C)O)[C@@H](C)O)[C@@H](C)O)[C@@H](C)CC)C(=O)O` [N8], the “solubility in water / PBS” value is “solubility problems in water” and the solubility on resuspension result is “required 10% (v/v) acetic acid for solubility”.

As to `CC[C@H](C)[C@H](NC(=O)[C@H](CC(C)C)NC(=O)CNC(=O)[C@@H](NC(=O)[C@H](Cc1ccccc1)NC(=O)[C@H](CCCCN)NC(=O)[C@H](Cc1c[nH]cn1)NC(=O)[C@H](CC(N)=O)NC(=O)[C@H](C)NC(=O)[C@H](CC(=O)O)NC(=O)[C@H](CCC(=O)O)NC(=O)[C@@H](NC(=O)[C@@H](NC(=O)[C@H](CC(C)C)NC(=O)[C@H](CC(C)C)NC(=O)[C@H](CCSC)NC(=O)CNC(=O)[C@H](CS)NC(=O)[C@H](CC(C)C)NC(=O)[C@@H](N)CCCCN)[C@@H](C)CC)[C@@H](C)O)[C@@H](C)O)C(=O)O` [peptide N4], the “solubility in water / PBS” value is “soluble in PBS”.

Regarding `CC[C@H](C)[C@H](NC(=O)CN)C(=O)N[C@@H](Cc1ccccc1)C(=O)N[C@@H](C)C(=O)NCC(=O)N[C@@H](CC(C)C)C(=O)N[C@@H](Cc1ccccc1)C(=O)N[C@@H](CCSC)C(=O)N[C@@H](CC(N)=O)C(=O)N[C@@H](C)C(=O)N[C@@H](Cc1ccc(O)cc1)C(=O)NCC(=O)N[C@@H](C)C(=O)NCC(=O)N[C@@H](CCC(N)=O)C(=O)N[C@H](C(=O)N[C@@H](CCSC)C(=O)N[C@@H](CC(C)C)C(=O)N[C@@H](CCCNC(=N)N)C(=O)N[C@@H](Cc1c[nH]c2ccccc12)C(=O)O)C(C)C` [N17], the “solubility in water / PBS” value is “solubility problems in water” and the solubility on resuspension entry is “required 10% (v/v) acetic acid for solubility”.
